Results as given in ChEMBL document CHEMBL1201862, “PubChem BioAssay data set” (2004).
Values belong to the molecule of their own block, whether it stands above or below them. Active and inactive are the calls of the source.

How the values were obtained:
[1] = target: DNA (cytosine-5)-methyltransferase 1 (Homo sapiens, UniProt P26358); assay: inhibition of DNA methylation by DNMT1 – biochemical, fluorescent molecular beacon, confirmation (AID 602386); format: functional
[2] = target: T1, Voltage-gated N-type calcium channel alpha-1B subunit/Amyloid beta A4 precursor protein-binding family A member 1 (Homo sapiens, UniProt Q00975+Q02410); format: protein assay
T1 sequence (Q00975 whole entry): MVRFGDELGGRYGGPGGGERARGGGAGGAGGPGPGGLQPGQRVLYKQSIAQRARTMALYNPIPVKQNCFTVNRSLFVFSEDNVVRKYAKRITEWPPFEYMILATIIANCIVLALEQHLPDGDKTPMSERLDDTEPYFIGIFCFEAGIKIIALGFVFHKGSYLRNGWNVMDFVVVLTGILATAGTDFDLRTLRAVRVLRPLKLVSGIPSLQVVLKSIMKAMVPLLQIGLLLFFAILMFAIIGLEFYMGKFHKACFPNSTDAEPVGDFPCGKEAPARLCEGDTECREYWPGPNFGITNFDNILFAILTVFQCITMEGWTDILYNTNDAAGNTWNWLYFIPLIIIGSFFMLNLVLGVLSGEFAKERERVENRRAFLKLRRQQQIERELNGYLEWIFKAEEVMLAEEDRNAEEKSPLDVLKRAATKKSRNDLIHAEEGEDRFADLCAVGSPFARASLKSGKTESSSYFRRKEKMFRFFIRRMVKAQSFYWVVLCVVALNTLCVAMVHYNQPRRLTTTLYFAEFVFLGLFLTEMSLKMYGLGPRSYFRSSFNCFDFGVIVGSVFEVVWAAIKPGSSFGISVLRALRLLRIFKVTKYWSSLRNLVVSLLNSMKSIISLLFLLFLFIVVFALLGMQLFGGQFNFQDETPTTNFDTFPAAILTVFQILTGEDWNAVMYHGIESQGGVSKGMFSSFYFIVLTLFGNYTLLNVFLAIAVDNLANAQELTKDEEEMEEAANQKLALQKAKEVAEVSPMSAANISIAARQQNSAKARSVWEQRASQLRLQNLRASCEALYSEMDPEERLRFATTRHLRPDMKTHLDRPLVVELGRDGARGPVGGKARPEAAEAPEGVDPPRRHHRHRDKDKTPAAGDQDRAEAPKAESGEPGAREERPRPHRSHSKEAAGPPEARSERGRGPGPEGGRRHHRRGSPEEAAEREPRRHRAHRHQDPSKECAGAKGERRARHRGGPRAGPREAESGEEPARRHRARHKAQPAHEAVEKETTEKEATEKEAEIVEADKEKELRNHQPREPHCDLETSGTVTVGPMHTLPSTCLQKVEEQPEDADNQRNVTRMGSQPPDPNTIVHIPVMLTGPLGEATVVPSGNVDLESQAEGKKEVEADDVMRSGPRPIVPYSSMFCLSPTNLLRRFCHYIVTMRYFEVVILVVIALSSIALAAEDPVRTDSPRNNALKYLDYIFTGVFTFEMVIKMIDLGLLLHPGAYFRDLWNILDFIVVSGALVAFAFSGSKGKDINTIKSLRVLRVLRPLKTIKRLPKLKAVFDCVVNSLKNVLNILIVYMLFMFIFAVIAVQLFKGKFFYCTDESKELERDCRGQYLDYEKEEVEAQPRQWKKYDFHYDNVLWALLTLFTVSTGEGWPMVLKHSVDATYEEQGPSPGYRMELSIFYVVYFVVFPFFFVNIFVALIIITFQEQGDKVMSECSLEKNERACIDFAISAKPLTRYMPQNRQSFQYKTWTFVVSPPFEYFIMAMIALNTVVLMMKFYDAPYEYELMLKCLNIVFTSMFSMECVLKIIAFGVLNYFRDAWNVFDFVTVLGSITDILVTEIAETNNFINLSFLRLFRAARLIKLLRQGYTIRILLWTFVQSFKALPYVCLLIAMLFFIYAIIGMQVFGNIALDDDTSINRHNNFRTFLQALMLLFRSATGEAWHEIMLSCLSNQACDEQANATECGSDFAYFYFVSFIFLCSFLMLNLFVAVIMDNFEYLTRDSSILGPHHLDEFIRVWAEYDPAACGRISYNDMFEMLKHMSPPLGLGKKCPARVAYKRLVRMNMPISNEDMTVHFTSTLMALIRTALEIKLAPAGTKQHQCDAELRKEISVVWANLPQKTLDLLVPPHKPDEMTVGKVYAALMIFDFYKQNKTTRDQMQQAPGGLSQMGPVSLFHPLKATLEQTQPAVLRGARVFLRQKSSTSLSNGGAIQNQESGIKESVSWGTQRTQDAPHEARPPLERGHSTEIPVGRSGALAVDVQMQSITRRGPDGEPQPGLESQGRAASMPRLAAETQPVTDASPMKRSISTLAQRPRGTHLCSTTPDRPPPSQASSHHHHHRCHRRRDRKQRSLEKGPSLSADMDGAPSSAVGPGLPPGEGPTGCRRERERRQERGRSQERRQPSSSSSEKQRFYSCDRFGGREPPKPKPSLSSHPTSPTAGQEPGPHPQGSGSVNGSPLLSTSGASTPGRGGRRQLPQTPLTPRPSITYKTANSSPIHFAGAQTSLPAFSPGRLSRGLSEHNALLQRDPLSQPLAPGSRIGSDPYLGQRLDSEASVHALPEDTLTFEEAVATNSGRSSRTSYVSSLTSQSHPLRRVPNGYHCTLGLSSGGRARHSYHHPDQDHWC
T1 sequence (Q02410 whole entry): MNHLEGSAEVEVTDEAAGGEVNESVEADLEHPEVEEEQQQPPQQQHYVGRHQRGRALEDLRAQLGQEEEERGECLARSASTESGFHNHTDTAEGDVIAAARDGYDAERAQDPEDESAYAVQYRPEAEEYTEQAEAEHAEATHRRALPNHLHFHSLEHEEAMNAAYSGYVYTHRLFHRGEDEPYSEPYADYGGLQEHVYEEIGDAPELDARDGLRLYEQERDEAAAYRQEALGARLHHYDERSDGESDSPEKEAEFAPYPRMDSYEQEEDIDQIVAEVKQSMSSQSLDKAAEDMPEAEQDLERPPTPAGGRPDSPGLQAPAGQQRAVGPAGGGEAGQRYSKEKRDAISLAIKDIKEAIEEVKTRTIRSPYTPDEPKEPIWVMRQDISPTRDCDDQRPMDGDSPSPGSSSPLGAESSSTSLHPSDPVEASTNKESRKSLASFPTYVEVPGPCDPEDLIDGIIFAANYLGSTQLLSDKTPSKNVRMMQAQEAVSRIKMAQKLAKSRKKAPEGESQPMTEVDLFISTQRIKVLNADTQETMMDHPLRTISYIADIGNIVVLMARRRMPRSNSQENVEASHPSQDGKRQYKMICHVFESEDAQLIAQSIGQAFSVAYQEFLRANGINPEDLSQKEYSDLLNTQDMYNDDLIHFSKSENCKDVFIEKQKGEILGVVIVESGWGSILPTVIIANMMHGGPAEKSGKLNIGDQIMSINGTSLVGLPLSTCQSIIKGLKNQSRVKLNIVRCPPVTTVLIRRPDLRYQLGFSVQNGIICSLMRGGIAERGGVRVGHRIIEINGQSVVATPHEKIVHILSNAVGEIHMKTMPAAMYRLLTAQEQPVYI

[3] = target: T1, Voltage-gated N-type calcium channel alpha-1B subunit/Amyloid beta A4 precursor protein-binding family A member 1; format: protein assay; remark: listed apart in the source
ORF 73 = target: T2, ORF 73 (Human herpesvirus 8, UniProt O40947); assay: KSHV LANA DNA-binding disruption – biochemical, fluorescence polarization, cherry-picked samples, dose response (AID 504725); set-up: species or system Human gammaherpesvirus 8;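 further: fluorescence polarization of a labeled DNA duplex reporting LANA DNA binding; potency is for inhibitors that block LANA binding to the DNA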
T2 sequence (O40947 whole entry): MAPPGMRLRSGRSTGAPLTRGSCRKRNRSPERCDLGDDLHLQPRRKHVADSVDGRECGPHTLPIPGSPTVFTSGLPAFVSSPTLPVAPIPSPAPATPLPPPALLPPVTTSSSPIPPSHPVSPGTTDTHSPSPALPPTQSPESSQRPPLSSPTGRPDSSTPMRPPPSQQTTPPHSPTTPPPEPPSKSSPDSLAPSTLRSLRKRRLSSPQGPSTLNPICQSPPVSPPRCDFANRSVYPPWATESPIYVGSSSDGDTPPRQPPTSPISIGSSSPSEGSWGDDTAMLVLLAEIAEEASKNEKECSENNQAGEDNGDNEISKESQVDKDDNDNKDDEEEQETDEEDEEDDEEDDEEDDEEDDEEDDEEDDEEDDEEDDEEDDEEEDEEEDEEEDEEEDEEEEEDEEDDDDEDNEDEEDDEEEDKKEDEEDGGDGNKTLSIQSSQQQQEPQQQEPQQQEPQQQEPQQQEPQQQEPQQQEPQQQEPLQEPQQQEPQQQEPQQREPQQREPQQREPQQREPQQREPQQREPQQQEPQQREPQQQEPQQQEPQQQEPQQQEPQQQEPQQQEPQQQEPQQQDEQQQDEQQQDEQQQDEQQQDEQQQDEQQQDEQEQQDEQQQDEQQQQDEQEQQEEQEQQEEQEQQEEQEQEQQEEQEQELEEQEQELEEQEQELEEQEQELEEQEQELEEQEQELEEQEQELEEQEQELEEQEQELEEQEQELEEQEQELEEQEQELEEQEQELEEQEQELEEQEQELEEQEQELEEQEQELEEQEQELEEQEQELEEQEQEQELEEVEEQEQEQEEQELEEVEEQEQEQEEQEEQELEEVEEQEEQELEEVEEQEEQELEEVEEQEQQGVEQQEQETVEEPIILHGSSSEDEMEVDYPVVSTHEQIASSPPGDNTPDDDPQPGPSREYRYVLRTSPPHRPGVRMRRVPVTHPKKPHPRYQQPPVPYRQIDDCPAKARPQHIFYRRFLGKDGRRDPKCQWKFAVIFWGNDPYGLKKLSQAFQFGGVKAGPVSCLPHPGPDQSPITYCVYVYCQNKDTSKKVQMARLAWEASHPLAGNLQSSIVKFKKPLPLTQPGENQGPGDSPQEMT

[4] = target: T3, Carboxy-terminal domain RNA polymerase II polypeptide A small phosphatase 1 (Homo sapiens, UniProt Q9GZU7); assay: CTDSP1 inhibitors, concentration-response, biochemical, absorbance readout, ultra-high-throughput screen actives (AID 540297); format: functional
T3 sequence (Q9GZU7 whole entry): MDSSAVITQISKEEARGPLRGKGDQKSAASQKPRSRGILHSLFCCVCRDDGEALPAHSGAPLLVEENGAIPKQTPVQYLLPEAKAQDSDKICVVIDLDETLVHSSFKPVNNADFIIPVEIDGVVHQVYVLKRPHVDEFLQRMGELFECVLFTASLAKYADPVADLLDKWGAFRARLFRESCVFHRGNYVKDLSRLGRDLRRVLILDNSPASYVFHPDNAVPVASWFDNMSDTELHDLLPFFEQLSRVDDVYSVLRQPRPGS

CHO-K1 = assay: (§1) Counterscreen for antagonists of the orexin 1 receptor (OX1R; HCRTR1): Homogeneous time resolved fluorescence (HTRF)-based cell-based dose response assay to identify antagonists of the parental CHO-K1 cell line. [Related pubchem assays (depositor defined):AID434989, AID435008, AID463079, AID485270, AID492963, AID492964, AID492965, AID493232, AID504699, AID504701]; format: functional; conditions: Cricetulus griseus
[5] = target: T4, Orexin/Hypocretin receptor type 1 (Homo sapiens, UniProt O43613); assay: (§2) Fluorescence-based cell-based high throughput dose response assay for antagonists of the orexin 1 receptor (OX1R; HCRTR1). [Related pubchem assays (depositor defined):AID434989, AID435008, AID463079, AID485270, AID492963, AID492964, AID492965, AID493232, AID504717, AID504718]; format: functional
T4 sequence (O43613 whole entry): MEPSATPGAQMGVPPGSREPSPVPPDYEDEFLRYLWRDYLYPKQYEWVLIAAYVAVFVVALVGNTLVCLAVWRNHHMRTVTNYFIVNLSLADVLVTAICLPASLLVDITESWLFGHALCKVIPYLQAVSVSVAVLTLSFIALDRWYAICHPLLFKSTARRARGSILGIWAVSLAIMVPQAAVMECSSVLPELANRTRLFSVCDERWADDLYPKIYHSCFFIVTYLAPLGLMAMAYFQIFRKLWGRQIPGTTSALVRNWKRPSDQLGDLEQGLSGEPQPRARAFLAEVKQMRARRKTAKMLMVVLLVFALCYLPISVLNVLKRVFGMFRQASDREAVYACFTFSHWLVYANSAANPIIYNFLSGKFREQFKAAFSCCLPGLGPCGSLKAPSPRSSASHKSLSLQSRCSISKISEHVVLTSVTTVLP

Orexin receptor type 2 [6] = target: T5, Orexin receptor type 2 (Homo sapiens, UniProt O43614); assay: Counterscreen assay for antagonists of the orexin 1 receptor (OX1R; HCRTR1): Homogeneous Time Resolved Fluorescence (HTRF)-based cell-based dose response assay for antagonists of the orexin 2 receptor (OX2R; HCRTR2), run by assay provider.; format: functional
T5 sequence (O43614 whole entry): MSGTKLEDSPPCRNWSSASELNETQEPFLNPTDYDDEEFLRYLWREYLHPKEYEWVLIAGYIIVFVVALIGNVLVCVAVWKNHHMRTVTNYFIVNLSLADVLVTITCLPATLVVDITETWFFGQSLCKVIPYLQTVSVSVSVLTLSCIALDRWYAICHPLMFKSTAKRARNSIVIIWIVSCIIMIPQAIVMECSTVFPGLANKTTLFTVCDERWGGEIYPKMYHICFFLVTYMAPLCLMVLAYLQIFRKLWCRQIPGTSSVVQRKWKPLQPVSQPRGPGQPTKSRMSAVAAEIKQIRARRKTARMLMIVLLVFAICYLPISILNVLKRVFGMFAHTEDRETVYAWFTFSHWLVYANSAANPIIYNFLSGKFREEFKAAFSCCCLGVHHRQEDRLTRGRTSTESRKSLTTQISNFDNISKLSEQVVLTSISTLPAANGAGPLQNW

[7] = as §1, with “Fluorescence-based” for “Homogeneous time resolved fluorescence (HTRF)-based”, “cell-based high throughput” for “cell-based”, “CHO” for “CHO-K1”; format: functional
Orexin receptor type 2 [8] = target: T5, Orexin receptor type 2; assay: Counterscreen assay for antagonists of the orexin 1 receptor (OX1R; HCRTR1): Fluorescence-based cell-based dose response assay for antagonists of the orexin 2 receptor (OX2R; HCRTR2), run by assay provider.; format: functional
[9] = target: T4, Orexin/Hypocretin receptor type 1; assay: as §2, with “Homogeneous Time Resolved Fluorescence (HTRF)-based” for “Fluorescence-based”; format: functional
[10] = target: T6, Polyadenylate-binding protein 1 (Homo sapiens, UniProt P11940); assay: MLLE domain peptide-binding blockers, IC50 – biochemical, fluorescence polarization, FITC-PAM2 peptide, dose response (AID 602259); format: functional; conditions: read-out: IC50_Mean
T6 sequence (P11940 whole entry, the tested form may be a part): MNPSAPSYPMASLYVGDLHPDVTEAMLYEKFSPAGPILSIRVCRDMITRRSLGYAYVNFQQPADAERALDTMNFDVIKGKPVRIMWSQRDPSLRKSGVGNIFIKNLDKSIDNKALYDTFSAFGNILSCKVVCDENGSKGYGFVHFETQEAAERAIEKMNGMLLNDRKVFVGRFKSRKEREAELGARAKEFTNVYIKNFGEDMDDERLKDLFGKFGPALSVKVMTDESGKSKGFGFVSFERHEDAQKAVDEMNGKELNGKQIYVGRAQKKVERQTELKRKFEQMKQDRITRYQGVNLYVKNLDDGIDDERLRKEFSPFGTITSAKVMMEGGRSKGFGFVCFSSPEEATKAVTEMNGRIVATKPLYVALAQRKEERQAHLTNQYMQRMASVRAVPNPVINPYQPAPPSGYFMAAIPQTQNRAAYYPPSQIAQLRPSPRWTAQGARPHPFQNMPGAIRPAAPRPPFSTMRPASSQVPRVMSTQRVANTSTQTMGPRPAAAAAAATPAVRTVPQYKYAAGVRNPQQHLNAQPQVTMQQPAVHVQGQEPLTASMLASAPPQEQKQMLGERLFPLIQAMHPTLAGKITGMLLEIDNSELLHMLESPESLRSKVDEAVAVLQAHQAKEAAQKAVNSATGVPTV

[11] = target: T6, Polyadenylate-binding protein 1; assay: MLLE binding blockers, Cy5 peptide tracer – biochemical, fluorescence polarization, Cy5-PAM2 peptide, secondary, miRNA deadenylation inhibitor project, dose response (AID 602260); format: functional; conditions: read-out: IC50_Mean
[12] = target: T7, Corticotropin-releasing factor receptor 2/Corticotropin-releasing factor-binding protein (Homo sapiens, UniProt P24387+Q13324); assay: Dose Response confirmation of uHTS hits for small molecule antagonists of the CRF-binding protein and CRF-R2 receptor complex.; format: functional; conditions: read-out: IC50_Mean
T7 sequence (Q13324 whole entry): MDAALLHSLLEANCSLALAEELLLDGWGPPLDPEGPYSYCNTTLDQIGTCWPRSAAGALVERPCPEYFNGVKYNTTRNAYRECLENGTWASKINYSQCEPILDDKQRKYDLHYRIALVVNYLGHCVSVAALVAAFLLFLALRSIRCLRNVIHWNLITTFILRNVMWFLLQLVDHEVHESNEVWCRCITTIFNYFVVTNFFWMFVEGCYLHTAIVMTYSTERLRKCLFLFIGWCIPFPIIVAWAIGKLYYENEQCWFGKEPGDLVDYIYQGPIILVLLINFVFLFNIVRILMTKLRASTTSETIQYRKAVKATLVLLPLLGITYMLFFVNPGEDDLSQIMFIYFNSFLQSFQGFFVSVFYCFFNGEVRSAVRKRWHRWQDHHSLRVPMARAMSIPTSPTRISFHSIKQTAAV
T7 sequence (P24387 whole entry): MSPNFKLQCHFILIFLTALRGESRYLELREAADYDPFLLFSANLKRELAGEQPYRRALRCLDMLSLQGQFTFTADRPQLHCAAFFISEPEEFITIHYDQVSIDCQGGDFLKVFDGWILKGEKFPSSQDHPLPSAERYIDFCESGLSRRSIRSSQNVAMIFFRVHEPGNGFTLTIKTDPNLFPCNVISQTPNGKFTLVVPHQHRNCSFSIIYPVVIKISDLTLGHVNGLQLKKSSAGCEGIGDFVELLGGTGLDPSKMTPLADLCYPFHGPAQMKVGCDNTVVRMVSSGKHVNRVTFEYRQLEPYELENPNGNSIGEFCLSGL

[13] = blockers of CRF-binding protein–CRF-R2 complex – cell-based, uHTS hits, 384-well, dose response (AID 651639); format: functional, Homo sapiens; conditions: read-out: IC50_Mean
[14] = target: T7, Corticotropin-releasing factor receptor 2/Corticotropin-releasing factor-binding protein; assay: activators of CRF receptor 2 with binding protein – uHTS hits, confirmation (AID 602473); format: functional; conditions: read-out: EC50_Mean
Melanocortin receptor 4 = Melanocortin receptor 4 (Homo sapiens, UniProt P32245); format: functional, cell-based;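 further: Cell-based assay with luminescence read-out, confirmatory dose-response testing for agonist activity of biased ligands at MC4R; human U2OS cells with tagged receptor and beta-arrestin; potency of agonists that increase receptor coupling to beta-arrestin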
[15] = target: T8, ATP-dependent translocase ABCB1 (Homo sapiens, UniProt P08183); assay: inhibition of BCRP-mediated JC-1 efflux – Ig-MXP3 cells, flow cytometry, set 2, dose response (AID 504566); format: functional; conditions: read-out: EC50_MICROM_;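 further: flow cytometry median green fluorescence of retained JC-1 dye; potency of efflux pump inhibition measured as rising substrate retention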
T8 sequence (P08183 whole entry): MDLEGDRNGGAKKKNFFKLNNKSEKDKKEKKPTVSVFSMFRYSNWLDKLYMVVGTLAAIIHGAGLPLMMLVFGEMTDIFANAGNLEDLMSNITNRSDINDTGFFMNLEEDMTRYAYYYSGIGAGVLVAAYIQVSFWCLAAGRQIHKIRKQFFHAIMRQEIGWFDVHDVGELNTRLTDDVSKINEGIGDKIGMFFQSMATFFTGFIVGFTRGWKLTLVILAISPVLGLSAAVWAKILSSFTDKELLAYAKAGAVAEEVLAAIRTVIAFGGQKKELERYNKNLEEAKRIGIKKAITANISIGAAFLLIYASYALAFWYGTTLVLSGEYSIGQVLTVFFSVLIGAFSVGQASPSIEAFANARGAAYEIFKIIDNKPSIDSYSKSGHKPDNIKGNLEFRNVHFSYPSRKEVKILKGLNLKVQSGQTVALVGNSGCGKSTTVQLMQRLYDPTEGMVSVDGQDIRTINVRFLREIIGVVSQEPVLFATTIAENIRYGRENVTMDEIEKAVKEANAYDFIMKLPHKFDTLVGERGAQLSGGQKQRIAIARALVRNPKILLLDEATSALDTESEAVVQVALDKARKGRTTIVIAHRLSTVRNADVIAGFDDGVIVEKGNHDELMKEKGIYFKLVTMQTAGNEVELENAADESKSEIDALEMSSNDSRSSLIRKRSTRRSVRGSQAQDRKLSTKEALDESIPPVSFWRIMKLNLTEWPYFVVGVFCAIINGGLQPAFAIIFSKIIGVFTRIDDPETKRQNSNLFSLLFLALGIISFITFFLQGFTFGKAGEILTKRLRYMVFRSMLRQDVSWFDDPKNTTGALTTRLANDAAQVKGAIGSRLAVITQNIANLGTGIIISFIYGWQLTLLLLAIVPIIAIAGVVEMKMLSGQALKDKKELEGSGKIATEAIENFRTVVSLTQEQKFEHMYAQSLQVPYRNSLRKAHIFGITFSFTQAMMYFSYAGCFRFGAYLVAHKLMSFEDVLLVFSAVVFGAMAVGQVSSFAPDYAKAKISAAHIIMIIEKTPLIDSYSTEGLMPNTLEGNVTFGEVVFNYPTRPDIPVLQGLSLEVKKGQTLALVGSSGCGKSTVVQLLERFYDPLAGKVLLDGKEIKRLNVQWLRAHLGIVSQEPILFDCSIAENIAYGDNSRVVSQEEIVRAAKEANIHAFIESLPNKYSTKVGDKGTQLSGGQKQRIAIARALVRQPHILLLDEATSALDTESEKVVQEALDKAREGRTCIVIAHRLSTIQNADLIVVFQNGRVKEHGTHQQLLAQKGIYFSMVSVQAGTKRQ

[16] = target: T8, ATP-dependent translocase ABCB1; assay: P-gp JC-1 efflux blockade concentration-response – Jurkat-DNR cells, flow cytometry, set 2, dose response (AID 504569); format: functional; conditions: read-out: EC50_MICROM_;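 further: potency of pump inhibitors that raise cellular JC-1 green fluorescence up to the nicardipine level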
[17] = target: Dual specificity tyrosine-phosphorylation-regulated kinase 1B (Homo sapiens, UniProt Q9Y463); assay: Navigating the Kinome. Panel member name: DYRK1B; format: functional
[18] = target: Macrophage-stimulating protein receptor (Homo sapiens, UniProt Q04912); assay: Navigating the Kinome. Panel member name: MST1R; format: functional
[19] = target: ALK tyrosine kinase receptor (Homo sapiens, UniProt Q9UM73); format: functional;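 further: ALK tested as one member of a kinase panel screen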
LIM domain kinase 1 = LIM domain kinase 1 (Homo sapiens, UniProt P53667); assay: Navigating the Kinome. Panel member name: LIMK1; format: functional

Compound: C=C(C)C(=O)Nc1cccc(C2=NOC3(C2)C[C@@H](C(N)=O)N(C(=O)C2(C)CC2)C3)c1 (some centres undefined)
IC50 [1]: 1.45 µM (active)
IC50 [2]: > 50 µM (inactive)
IC50 [3]: 1.84 µM (active)
AC50 (ORF 73): 17.9 µM (active)
IC50 [4]: 408 nM (active)

Compound: Cc1ccc(N(C)S(=O)(=O)c2cccc(C(=O)NCC(c3cccs3)N3CCOCC3)c2)cc1 (centres undefined)
IC50 (CHO-K1): > 66.2 µM (inactive)
IC50 [5]: 12 µM (inactive)
IC50 (Orexin receptor type 2 [6]): 3.35 µM (active)
IC50 [7]: > 49.8 µM (inactive)
IC50 (Orexin receptor type 2 [8]): > 88.8 µM (inactive)
IC50 [9]: 715 nM (active)

Compound: O=C(NC(=S)Nc1cccc2cccnc12)c1cccs1
IC50 (CHO-K1): > 66.2 µM (inactive)
IC50 [5]: > 5.52 µM (active)
IC50 [10]: > 66 µM (inactive)
IC50 (Orexin receptor type 2 [6]): > 50 µM (inactive)
IC50 [7]: > 49.7 µM (inactive)
IC50 (Orexin receptor type 2 [8]): > 88.8 µM (inactive)
IC50 [11]: > 66 µM (inactive)
IC50 [9]: > 3.31 nM (active)

Compound: Nc1ccc2cc(NCCc3ccccc3)cc(Nc3ncccn3)c2n1
Ki [17]: 2 µM (active)
Ki [18]: 3.16 µM (active)
Ki [19]: 1.58 µM (active)
Ki (LIM domain kinase 1): 631 nM (active)

The remaining lines, values ahead:

IC50 [12]: 2.98 µM (active)
IC50 [13]: 19.8 µM (active)
EC50 [14]: > 53 µM (inactive)
Compound: CCCCNC(=O)CCn1c(=O)c2ccccc2n(Cc2ccccc2C)c1=O

EC50 (Melanocortin receptor 4): > 89.2 µM (inactive)
Compound: O=C(NC(c1ccccc1)c1ccsc1)C1CCN(CCOc2ccc(Cl)cc2Cl)CC1 (centres undefined)

EC50 [15]: 1.98 µM (active)
EC50 [16]: 6 µM (active)
Compound: O=C(c1ccoc1)N1CCCN(c2cc(-c3ccccc3)nc3cc(-c4cccc(Cl)c4)nn23)CC1
